Data from PubChem BioAssay AID192 (DTP/NCI, 2004).
Toxic doses and inconclusive results are not listed. Peptide text beside a SMILES is read from it. * marks the point of attachment. Cbz = O=C(OCc1ccccc1)*

Test system: BDF1 mice, B16 melanoma ip, median survival T/C
Assay: NCI In Vivo Anticancer Drug Screen. Data for tumor model B16 Melanoma (intraperitoneal) in B6D2F1 (BDF1) mice
Settings: endpoint: median survival time, higher = longer survival
Procedure: The antitumor activity of compounds was measured in mice bearing transplantable tumors. Survival or tumor size were measured and the results are expressed as the measurement made in the treated group (T) divided by the measurement made in the vehicle treated control group (C). The tumor model used in this assay is B16 Melanoma (intraperitoneal) in B6D2F1 (BDF1) mice

[1] = dose: 100.0 mg/kg/injection, schedule: Q01DX009 (ip), vehicle: Klucel (hydroxypropylcellulose) (HPC)
[2] = dose: 100.0 mg/kg/injection, schedule: Q04DX003 (ip), vehicle: Klucel (hydroxypropylcellulose) (HPC)
[3] = dose: 200.0 mg/kg/injection, schedule: Q01DX009 (ip), vehicle: Klucel (hydroxypropylcellulose) (HPC)
[4] = dose: 200.0 mg/kg/injection, schedule: Q04DX003 (ip), vehicle: Klucel (hydroxypropylcellulose) (HPC)
[5] = dose: 400.0 mg/kg/injection, schedule: Q01DX009 (ip), vehicle: Klucel (hydroxypropylcellulose) (HPC)
[6] = dose: 400.0 mg/kg/injection, schedule: Q04DX003 (ip), vehicle: Klucel (hydroxypropylcellulose) (HPC)
[7] = dose: 25.0 mg/kg/injection, schedule: Q01DX009 (ip), vehicle: saline with Tween-80
[8] = dose: 50.0 mg/kg/injection, schedule: Q01DX009 (ip), vehicle: saline with Tween-80
[9] = dose: 100.0 mg/kg/injection, schedule: Q01DX009 (ip), vehicle: saline with Tween-80

For `COc1ccc(C(=O)c2ccc(C)cc2)cc1`, the T/C [1] was 97 % of control, the T/C [2] was 88 % of control and the T/C [3] was 93 % of control. For the same compound, the T/C [4] was 95 % of control, the T/C [5] was 93 % of control and the T/C [6] was 102 % of control.

In the case of `O=NN(CCBr)C(=O)NC1CCCCC1`, the T/C (dose: 100.0 mg/kg/injection, schedule: Q01DX009 (ip), vehicle: gum acacia) is reported as 105 % of control, the T/C (dose: 200.0 mg/kg/injection, schedule: Q01DX009 (ip), vehicle: gum acacia) is reported as 102 % of control and the T/C (dose: 400.0 mg/kg/injection, schedule: Q01DX009 (ip), vehicle: gum acacia) is reported as 90 % of control.

In the case of `CCOC(=O)C1C2OC(=O)C(C(=O)C2CN(CCCl)CCCl)C1C1CC=C(CC2=CCC(C3C4C(=O)OC(C(CN(CCCl)CCCl)C4=O)C3C(=O)OCC)CC2)CC1` (stereo not drawn), the T/C (dose: 12.5 mg/kg/injection, schedule: Q01DX009 (ip), vehicle: Klucel (hydroxypropylcellulose) (HPC)) is reported as 107 % of control, the T/C (dose: 12.5 mg/kg/injection, schedule: Q01DX009 (ip), vehicle: saline with Tween-80) is reported as 113 % of control and the T/C (dose: 25.0 mg/kg/injection, schedule: Q01DX009 (ip), vehicle: Klucel (hydroxypropylcellulose) (HPC)) is reported as 118 % of control. For the same compound, the T/C [7] was 119 % of control, the T/C [8] was 150 % of control and the T/C [1] was 153 % of control. The T/C [9] was 174 % of control.

`CCOC(=O)c1cc(C(=O)OCC)c(=O)oc1OCC` was tested, and the T/C [7] was 102 % of control, the T/C [8] was 100 % of control and the T/C [9] was 100 % of control.

`COC1CCCCC1I` (stereo not drawn) was tested, and the T/C (dose: 50.0 mg/kg/injection, schedule: Q01DX009 (ip), vehicle: alcohol) was 100 % of control, the T/C (dose: 75.0 mg/kg/injection, schedule: Q04DX003 (ip), vehicle: alcohol) was 95 % of control and the T/C (dose: 100.0 mg/kg/injection, schedule: Q01DX009 (ip), vehicle: alcohol) was 92 % of control. For the same compound, the T/C (dose: 150.0 mg/kg/injection, schedule: Q04DX003 (ip), vehicle: alcohol) was 92 % of control.

With `COc1ccc(CC(C(=O)O)C(Cc2ccc(OC)c(OC)c2)C(=O)O)cc1OC` (stereo not drawn) the T/C [1] was 94 % of control and the T/C [3] was 89 % of control.

For `COc1cccc2c1C(=O)c1c(O)c3c(c(O)c1C2=O)C[C@@](O)(C(C)O)C[C@@H]3OC1CC(N2CCOCC2C#N)C(O)C(C)O1` (stereo partly drawn), the T/C (dose: 4.69 micrograms/kg/injection, schedule: Q01DX001 (ip), vehicle: water) was 110 % of control, the T/C (dose: 9.37 micrograms/kg/injection, schedule: Q01DX001 (ip), vehicle: water) was 115 % of control and the T/C (dose: 37.5 micrograms/kg/injection, schedule: Q01DX001 (ip), vehicle: water) was 124 % of control.

`COc1ccc(NC(=O)Oc2c(C(C)C)cccc2C(C)C)cc1` was tested, and the T/C [1] was 96 % of control, the T/C [2] was 110 % of control and the T/C [3] was 96 % of control. For the same compound, the T/C [4] was 103 % of control, the T/C [5] was 89 % of control and the T/C [6] was 103 % of control.

For `O=S(=O)([O-])NC1CCCCC1.O=S(=O)([O-])NC1CCCCC1.[Hg+2].[Hg+2].[Hg+2].[O-2].[O-2]`, the T/C (dose: 0.12 mg/kg/injection, schedule: Q01DX009 (ip), vehicle: saline) was 98 % of control, the T/C (dose: 0.25 mg/kg/injection, schedule: Q01DX009 (ip), vehicle: saline) was 105 % of control and the T/C (dose: 0.5 mg/kg/injection, schedule: Q01DX009 (ip), vehicle: saline) was 98 % of control. The T/C (dose: 1.0 mg/kg/injection, schedule: Q01DX009 (ip), vehicle: saline) was 90 % of control.

With `C=CCN1C(=O)C=CC1=O` the T/C (dose: 0.75 mg/kg/injection, schedule: Q01DX009 (ip), vehicle: saline) was 102 % of control and the T/C (dose: 1.5 mg/kg/injection, schedule: Q01DX009 (ip), vehicle: saline) was 93 % of control.

`CCC[CH2][Sn]1([CH2]CCC)[O]OC(c2ccc(OC)cc2)[O]1` (stereo not drawn) was tested, and the T/C (dose: 3.12 mg/kg/injection, schedule: Q01DX009 (sc), vehicle: olive oil, sesame oil, peanut oil) was 93 % of control.

In the case of `CC(=O)Nc1ccc2c(ccc3ccccc32)c1`, the T/C [7] is reported as 90 % of control, the T/C [8] is reported as 102 % of control and the T/C [9] is reported as 89 % of control.

In the case of `CCC[CH2][Sn]([CH2]CCC)[CH2]CCC.CCC[CH2][Sn]([CH2]CCC)[CH2]CCC`, the T/C (dose: 5.0 mg/kg/injection, schedule: Q01DX009 (ip), vehicle: Klucel (hydroxypropylcellulose) (HPC)) is reported as 109 % of control.

With `O=C(NC(Cc1ccccc1)C(=O)N1CCCC1C(=O)O)OCc1ccccc1` (stereo not drawn) (Cbz-Phe-Pro-OH; configuration not given here) the T/C [8] was 99 % of control, the T/C [9] was 99 % of control and the T/C (dose: 200.0 mg/kg/injection, schedule: Q01DX009 (ip), vehicle: saline with Tween-80) was 91 % of control.
